Drawing on ChEMBL document CHEMBL3627674, “Discovery of wrightiadione as a novel template for the TrkA kinase inhibitors” (Bioorg Med Chem Lett, 2015), this text covers IC50 for twelve compounds.

SMILES strings stand for the structures.

High affinity nerve growth factor receptor, sequence (P04629 whole entry): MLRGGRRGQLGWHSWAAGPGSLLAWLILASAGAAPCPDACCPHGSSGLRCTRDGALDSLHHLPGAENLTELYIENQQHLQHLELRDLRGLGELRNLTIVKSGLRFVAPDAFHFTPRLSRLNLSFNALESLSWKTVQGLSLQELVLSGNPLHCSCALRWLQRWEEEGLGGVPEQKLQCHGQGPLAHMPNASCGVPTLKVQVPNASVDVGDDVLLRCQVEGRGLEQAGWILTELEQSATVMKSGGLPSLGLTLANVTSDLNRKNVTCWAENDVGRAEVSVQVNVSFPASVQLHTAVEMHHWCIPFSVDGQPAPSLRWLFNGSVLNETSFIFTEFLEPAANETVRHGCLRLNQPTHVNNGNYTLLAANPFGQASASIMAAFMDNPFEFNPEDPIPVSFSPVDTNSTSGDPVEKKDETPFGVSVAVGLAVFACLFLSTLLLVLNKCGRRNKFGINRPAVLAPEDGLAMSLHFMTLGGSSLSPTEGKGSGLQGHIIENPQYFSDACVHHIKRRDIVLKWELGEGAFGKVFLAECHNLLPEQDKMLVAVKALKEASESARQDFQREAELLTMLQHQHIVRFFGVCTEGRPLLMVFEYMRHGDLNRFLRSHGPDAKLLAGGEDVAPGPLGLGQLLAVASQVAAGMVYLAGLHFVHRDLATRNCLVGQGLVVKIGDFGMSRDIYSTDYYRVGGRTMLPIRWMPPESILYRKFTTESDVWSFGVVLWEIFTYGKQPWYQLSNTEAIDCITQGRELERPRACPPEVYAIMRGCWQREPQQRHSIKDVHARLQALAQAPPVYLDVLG

One assay has as its target High affinity nerve growth factor receptor (Homo sapiens, UniProt P04629). Nature of the assay: Inhibition of TrkA (unknown origin) by radiometric analysis in presence of [gamma-33P]-ATP.
Turning to `Cn1c2c(c(=O)c3ccc(Cl)cc31)-c1ccccc1C2=O`, the concentration for half-maximal inhibition (IC50) was 88.5 µM. `Cc1cccc2c1C(=O)c1c-2c(=O)c2ccccc2n1C`: the 50% inhibitory concentration (IC50) is 73.3 µM. As to `COc1ccc2c(c1)C(=O)c1c-2c(=O)c2ccccc2n1C`, the IC50 amounted to 6.6 µM. On the same count and under the same terms, the result for `O=C1c2ccccc2-c2c1n(Cc1ccccc1)c1ccccc1c2=O` reads 10.3 µM. Regarding `COc1cccc2c1-c1c(n(C)c3ccccc3c1=O)C2=O`, the IC50 worked out at 209 µM. `COc1ccc2c(c1)C(=O)c1c-2c(=O)c2ccccc2n1Cc1ccccc1`: the 50% inhibitory concentration (IC50) is 16.4 µM. Same read-out and setting: to `Cn1c2c(c(=O)c3ccccc31)-c1ccccc1C2=O` belongs 28.9 µM; to `COc1ccc2c(c1)-c1c(n(C)c3ccccc3c1=O)C2=O`, 14.4 µM. On to `Cn1c2c(c(=O)c3ccccc31)-c1cccc(O)c1C2=O`, for which the IC50 is 141 µM.

For `Cn1c2c(c(=O)c3ccc(C(F)(F)F)cc31)-c1ccccc1C2=O`, the concentration for half-maximal inhibition (IC50) amounted to 117 µM. As to `CCOC(=O)n1c2c(c(=O)c3ccccc31)-c1ccccc1C2=O`, the half-inhibitory concentration (IC50) came to 16.5 µM. Turning to `Cc1ccc2c(c1)C(=O)c1c-2c(=O)c2ccccc2n1C`, the IC50 is 47.2 µM.

For another assay, the target named is Serine/threonine-protein kinase PLK3 (Homo sapiens, UniProt Q9H4B4). Nature of the assay: Inhibition of PLK3 (unknown origin) by radiometric analysis in presence of [gamma-33P]-ATP.
Serine/threonine-protein kinase PLK3, sequence (Q9H4B4 whole entry): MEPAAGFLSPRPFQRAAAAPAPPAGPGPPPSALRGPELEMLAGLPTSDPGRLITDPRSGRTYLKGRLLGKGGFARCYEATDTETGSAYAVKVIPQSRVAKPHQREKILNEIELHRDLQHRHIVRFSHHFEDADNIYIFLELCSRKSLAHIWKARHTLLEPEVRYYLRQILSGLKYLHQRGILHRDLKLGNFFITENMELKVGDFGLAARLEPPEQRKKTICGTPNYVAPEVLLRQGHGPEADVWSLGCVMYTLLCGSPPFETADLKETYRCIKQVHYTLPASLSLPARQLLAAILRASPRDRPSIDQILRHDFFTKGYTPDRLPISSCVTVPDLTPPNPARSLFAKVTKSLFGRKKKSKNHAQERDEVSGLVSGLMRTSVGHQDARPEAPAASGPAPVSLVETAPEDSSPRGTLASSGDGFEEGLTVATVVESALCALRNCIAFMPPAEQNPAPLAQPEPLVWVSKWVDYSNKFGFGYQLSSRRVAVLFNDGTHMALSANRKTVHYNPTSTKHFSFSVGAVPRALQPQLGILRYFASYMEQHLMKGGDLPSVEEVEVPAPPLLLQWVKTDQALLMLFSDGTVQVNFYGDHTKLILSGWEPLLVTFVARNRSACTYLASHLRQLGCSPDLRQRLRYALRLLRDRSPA
Turning to `Cn1c2c(c(=O)c3ccccc31)-c1ccccc1C2=O`, the concentration for half-maximal inhibition (IC50) was greater than 200 µM.

Broadly, the IC50 is the concentration that gives 50% inhibition.
